What was measured:
Assay type in all cases: in vivo
[1] = tested on: DH0 maize plants, Germplasm A; assay: Doubling efficiency after co-dominant ear induction (Example 2); conditions: for DE04 doubling efficiency / DE20 doubling efficiency / DE30 doubling efficiency / DE50 doubling efficiency: Germplasm A DH0, 60 mL 2.5% PBZ
Source text: An F1 hybrid-derived haploid induction population derived from female inbred maize plant Germplasm A was germinated in soil and tended in standard greenhouse maize growing conditions for approximately seven days. Seedlings were then subjected to a bulk colchicine-based chromosome doubling treatment as described above. Following treatment, seedlings were transplanted into pots and tended in a greenhouse at standard greenhouse maize growing conditions to recover.
Twenty-nine days after the colchicine doubling treatment, 77 of the DH0 seedlings were subjected to a co-dominant ear induction treatment comprising the addition of 60 mL of 2.5% PBZ (v/v) in water, which was poured into the soil surrounding the roots of each plant. The seedlings were then tended in standard greenhouse maize growing conditions until they flowered, at which time each plant that produced pollen was self-pollinated. After approximately 3-4 weeks, ears were harvested and the kernels (DH1 seeds) that formed on the treated DH0 plants were counted to determine doubling efficiencies.
Doubling efficiencies (DE) were calculated under four different constraints, depending on the minimum number of kernels an ear had to produce in order to even be included in the calculation. DE04 represents the portion of all the doubled DH0 plants that produced a total of at least four seeds when all ears were considered. DE20 represents the portion of all the doubled DH0 plants that produced a total of at least 20 kernels when all ears were considered. Similarly, DE30 represents the portion of doubled DH0 plants that produced a total of at least 30 kernels when all ears were considered, and DE50 represents the portion of doubled DH0 plants that produced a total of at least 50 kernels when all ears were considered.
Furthermore, the above doubling efficiencies were calculated once by considering only the kernels that formed on the primary ear of each plant (Ear1), once by considering only the kernels that formed on the primary and secondary ear of each plant (Ear2), once by considering only the kernels that formed on the primary, secondary, and tertiary ear of each plant (Ear3), and finally by considering all the kernels that formed on all the ears of each plant (Earall).

[2] = tested on: eleven corn inbred germplasm; assay: Chemistry treatment of eleven corn inbred germplasm at V3 or V8 (Example 12); conditions: for Avg Kernels from Main Stem / Avg Total Kernels Per Plant: auto-self
Source text: Seeds for eleven corn inbred germplasm was planted in six-packs and grown in greenhouses under standard conditions as outlined in Example 1. At thirteen days after germination the seedlings for the eleven different germplasm (20 plants per germplasm) were transplanted into standard pots. […]

haploid mother plant = assay: Tiller induction in doubled haploid maize (Example 7)
Experimental: A haploid mother plant will be subjected to doubling treatment and thereafter planted in a pot, the soil surrounding the roots drenched with 100 mL of 2.5% of paclobutrazol, and then tended standard maize greenhouse growing conditions for several days. […] One of the resulting daughter tiller plants can be separated from the mother plant, transplanted into a separate pot, and grown via standard greenhouse management procedures to eventually recover a daughter plant with normal haploid morphology.

[3] = Ear 2 (primary and secondary ear)
[4] = Ear 3 (primary, secondary, tertiary ear)
[5] = pedigree A, 3HV: 14DAP, 4 mg/plant, 2% 50 mL
[6] = pedigree A, 3LV: 14DAP, 4 mg/plant, 6.25% 16 mL
[7] = pedigree A, 8HV: 28DAP, 8 mg/plant, 2% 100 mL
[8] = pedigree A, 8LV: 28DAP, 8 mg/plant, 13% 16 mL
[9] = pedigree B, 3HV: 14DAP, 6 mg/plant, 3% 50 mL
[10] = pedigree B, 3LV: 14DAP, 6 mg/plant, 9.38% 16 mL
[11] = pedigree B, 8HV: 28DAP, 16 mg/plant, 4% 100 mL
[12] = pedigree B, 8LV: 28DAP, 16 mg/plant, 25% 16 mL
[13] = pedigree C, 3LV: 14DAP, 6 mg/plant, 9.38% 16 mL
[14] = pedigree C, 8HV: 28DAP, 16 mg/plant, 4% 100 mL
[15] = pedigree C, 8LV: 28DAP, 16 mg/plant, 25% 16 mL
[16] = pedigree D, 3HV: 14DAP, 6 mg/plant, 3% 50 mL
[17] = pedigree D, 3LV: 14DAP, 6 mg/plant, 9.38% 16 mL
[18] = pedigree D, 8HV: 28DAP, 16 mg/plant, 4% 100 mL
[19] = pedigree D, 8LV: 28DAP, 16 mg/plant, 25% 16 mL
[20] = pedigree E, 3HV: 14DAP, 6 mg/plant, 3% 50 mL
[21] = pedigree E, 3LV: 14DAP, 6 mg/plant, 9.38% 16 mL
[22] = pedigree E, 8HV: 28DAP, 16 mg/plant, 4% 100 mL
[23] = pedigree E, 8LV: 28DAP, 16 mg/plant, 25% 16 mL
[24] = pedigree F, 3HV: 14DAP, 6 mg/plant, 3% 50 mL
[25] = pedigree F, 3LV: 14DAP, 6 mg/plant, 9.38% 16 mL
[26] = pedigree F, 8HV: 28DAP, 16 mg/plant, 4% 100 mL
[27] = pedigree F, 8LV: 28DAP, 16 mg/plant, 25% 16 mL
[28] = pedigree G, 3HV: 14DAP, 6 mg/plant, 3% 50 mL
[29] = pedigree G, 3LV: 14DAP, 6 mg/plant, 9.38% 16 mL
[30] = pedigree G, 8HV: 28DAP, 16 mg/plant, 4% 100 mL
[31] = pedigree G, 8LV: 28DAP, 16 mg/plant, 25% 16 mL
[32] = pedigree H, 3HV: 14DAP, 6 mg/plant, 3% 50 mL
[33] = pedigree H, 3LV: 14DAP, 6 mg/plant, 9.38% 16 mL
[34] = pedigree H, 8HV: 28DAP, 16 mg/plant, 4% 100 mL
[35] = pedigree H, 8LV: 28DAP, 16 mg/plant, 25% 16 mL
[36] = pedigree I, 3HV: 14DAP, 10 mg/plant, 5% 50 mL
[37] = pedigree I, 3LV: 14DAP, 10 mg/plant, 15.63% 16 mL
[38] = pedigree I, 8HV: 28DAP, 32 mg/plant, 8% 100 mL
[39] = pedigree I, 8LV: 28DAP, 32 mg/plant, 50% 16 mL
[40] = pedigree J, 3HV: 14DAP, 10 mg/plant, 5% 50 mL
[41] = pedigree J, 3LV: 14DAP, 10 mg/plant, 15.63% 16 mL
[42] = pedigree J, 8HV: 28DAP, 32 mg/plant, 8% 100 mL
[43] = pedigree J, 8LV: 28DAP, 32 mg/plant, 50% 16 mL
[44] = pedigree K, 3HV: 14DAP, 6 mg/plant, 3% 50 mL
[45] = pedigree K, 8HV: 28DAP, 16 mg/plant, 4% 100 mL
[46] = pedigree K, 8LV: 28DAP, 16 mg/plant, 25% 16 mL
[47] = pedigree K, K3LV: 14DAP, 6 mg/plant, 9.38% 16 mL

SMILES: CC(C)(C)[C@@H](O)[C@@H](Cc1ccc(Cl)cc1)n1cncn1 (relative stereo) [PBZ, (±)-(R*, R*)-beta-((4-chlorophenyl)methyl)-alpha-(1,1,-dimethylethyl)-1H-1,2,4,-triazole-1-ethanol]
- DE04 doubling efficiency ([1]; Ear 1 only): 71%
- DE20 doubling efficiency ([1]; Ear 1 only): 37%
- DE30 doubling efficiency ([1]; Ear 1 only): 26%
- DE50 doubling efficiency ([1]; Ear 1 only): 23%
- reduction in DE between DE04 and DE20 ([1]; Ear2): 22%
- DE04 doubling efficiency [1, 3]: 76%
- DE20 doubling efficiency [1, 3]: 59%
- DE30 doubling efficiency [1, 3]: 47%
- DE50 doubling efficiency [1, 3]: 36%
- DE04 doubling efficiency [1, 4]: 76%
- DE20 doubling efficiency [1, 4]: 65%
- DE30 doubling efficiency [1, 4]: 58%
- DE50 doubling efficiency [1, 4]: 50%
- DE04 doubling efficiency ([1]; Ear All): 76%
- DE20 doubling efficiency ([1]; Ear All): 68%
- DE30 doubling efficiency ([1]; Ear All): 58%
- DE50 doubling efficiency ([1]; Ear All): 52%
- kernel number per plant ([2]; diverse germplasm treated at V3 (14DAP) or V8 (28DAP), FIG. 11): average increase in kernel number per plant
- decrease in height, on average ([2]; every germplasm tested, FIG. 10): 30-50%
- Avg Kernels from Main Stem [2, 5]: 330.50
- Avg Total Kernels Per Plant [2, 5]: 351.00
- Avg Kernels from Main Stem [2, 6]: 352.25
- Avg Total Kernels Per Plant [2, 6]: 515.75
- Avg Kernels from Main Stem [2, 7]: 337.00
- Avg Total Kernels Per Plant [2, 7]: 345.75
- Avg Kernels from Main Stem [2, 8]: 366.50
- Avg Total Kernels Per Plant [2, 8]: 413.00
- Avg Kernels from Main Stem [2, 9]: 204.00
- Avg Total Kernels Per Plant [2, 9]: 215.50
- Avg Kernels from Main Stem [2, 10]: 260.25
- Avg Total Kernels Per Plant [2, 10]: 291.25
- Avg Kernels from Main Stem [2, 11]: 567.00
- Avg Total Kernels Per Plant [2, 11]: 567.25
- Avg Kernels from Main Stem [2, 12]: 427.00
- Avg Total Kernels Per Plant [2, 12]: 432.75
- Avg Kernels from Main Stem [2, 13]: 291.50
- Avg Total Kernels Per Plant [2, 13]: 611.25
- Avg Kernels from Main Stem [2, 14]: 148.00
- Avg Total Kernels Per Plant [2, 14]: 255.25
- Avg Kernels from Main Stem [2, 15]: 325.75
- Avg Total Kernels Per Plant [2, 15]: 513.25
- Avg Kernels from Main Stem [2, 16]: 616.75
- Avg Total Kernels Per Plant [2, 16]: 766.25
- Avg Kernels from Main Stem [2, 17]: 631.25
- Avg Total Kernels Per Plant [2, 17]: 839.25
- Avg Kernels from Main Stem [2, 18]: 581.75
- Avg Total Kernels Per Plant [2, 18]: 646.75
- Avg Kernels from Main Stem [2, 19]: 727.75
- Avg Total Kernels Per Plant [2, 19]: 745.50
- Avg Kernels from Main Stem [2, 20]: 334.50
- Avg Total Kernels Per Plant [2, 20]: 405.25
- Avg Kernels from Main Stem [2, 21]: 291.25
- Avg Total Kernels Per Plant [2, 21]: 422.50
- Avg Kernels from Main Stem [2, 22]: 532.50
- Avg Total Kernels Per Plant [2, 22]: 678.25
- Avg Kernels from Main Stem [2, 23]: 583.25
- Avg Total Kernels Per Plant [2, 23]: 772.75
- Avg Kernels from Main Stem [2, 24]: 414.75
- Avg Total Kernels Per Plant [2, 24]: 1078.75
- Avg Kernels from Main Stem [2, 25]: 392.00
- Avg Total Kernels Per Plant [2, 25]: 777.75
- Avg Kernels from Main Stem [2, 26]: 301.00
- Avg Total Kernels Per Plant [2, 26]: 442.25
- Avg Kernels from Main Stem [2, 27]: 461.00
- Avg Total Kernels Per Plant [2, 27]: 661.00
- Avg Kernels from Main Stem [2, 28]: 381.50
- Avg Total Kernels Per Plant [2, 28]: 905.50
- Avg Kernels from Main Stem [2, 29]: 485.50
- Avg Total Kernels Per Plant [2, 29]: 1033.50
- Avg Kernels from Main Stem [2, 30]: 284.50
- Avg Total Kernels Per Plant [2, 30]: 567.00
- Avg Kernels from Main Stem [2, 31]: 542.75
- Avg Total Kernels Per Plant [2, 31]: 728.25
- Avg Kernels from Main Stem [2, 32]: 77.50
- Avg Total Kernels Per Plant [2, 32]: 80.00
- Avg Kernels from Main Stem [2, 33]: 73.25
- Avg Total Kernels Per Plant [2, 33]: 83.00
- Avg Kernels from Main Stem [2, 34]: 388.50
- Avg Total Kernels Per Plant [2, 34]: 520.00
- Avg Kernels from Main Stem [2, 35]: 439.75
- Avg Total Kernels Per Plant [2, 35]: 564.75
- Avg Kernels from Main Stem [2, 36]: 172.00
- Avg Total Kernels Per Plant [2, 36]: 218.75
- Avg Kernels from Main Stem [2, 37]: 175.00
- Avg Total Kernels Per Plant [2, 37]: 191.25
- Avg Kernels from Main Stem [2, 38]: 508.75
- Avg Total Kernels Per Plant [2, 38]: 550.50
- Avg Kernels from Main Stem [2, 39]: 448.25
- Avg Total Kernels Per Plant [2, 39]: 448.25
- Avg Kernels from Main Stem [2, 40]: 587.00
- Avg Total Kernels Per Plant [2, 40]: 1005.75
- Avg Kernels from Main Stem [2, 41]: 602.75
- Avg Total Kernels Per Plant [2, 41]: 953.25
- Avg Kernels from Main Stem [2, 42]: 361.50
- Avg Total Kernels Per Plant [2, 42]: 398.75
- Avg Kernels from Main Stem [2, 43]: 280.50
- Avg Total Kernels Per Plant [2, 43]: 298.75
- Avg Kernels from Main Stem [2, 44]: 317.75
- Avg Total Kernels Per Plant [2, 44]: 365.00
- Avg Kernels from Main Stem [2, 45]: 446.75
- Avg Total Kernels Per Plant [2, 45]: 487.00
- Avg Kernels from Main Stem [2, 46]: 495.00
- Avg Total Kernels Per Plant [2, 46]: 539.75
- Avg Kernels from Main Stem [2, 47]: 418.75
- Avg Total Kernels Per Plant [2, 47]: 437.75
- DH1 seeds yielded by transplanted daughter tiller plant when selfed (haploid mother plant; 100 mL of 2.5% paclobutrazol): several dozen
- effect on mother plant (haploid mother plant; 100 mL of 2.5% paclobutrazol soil drench after doubling treatment): shortened internodes and increased tiller production
